ChEMBL document CHEMBL1201862, “PubChem BioAssay data set” (2004)
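All cell lines were grown in 96-well plates and treated with compound for 48 hours. The concentration for 50% growth inhibition is given as GI50.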 Activity calls are given as the source filed them. Rule as the data show it: active = GI50 up to about 1.1 µM and inactive = higher.

What was measured:
Assay in all cases: inhibition of tumour cell growth, NCI panel, 48 h
EKVX = system: EKVX
KM12 = system: KM12
DLD-1 = system: DLD-1
M19-MEL = system: M19-MEL
SNB-78 = system: SNB-78
TK-10 = system: TK-10
SF-295 = system: SF-295
CCRF-CEM = system: CCRF-CEM
COLO 205 = system: COLO 205
SF-539 = system: SF-539
OVCAR-3 = system: OVCAR-3
ACHN = system: ACHN
786-0 = system: 786-0
OVCAR-5 = system: OVCAR-5
SN12C = system: SN12C
UACC-257 = system: UACC-257
NCI-H522 = system: NCI-H522
HCT-116 = system: HCT-116
DMS-114 = system: DMS-114
LOX IMVI = system: LOX IMVI
SK-MEL-5 = system: SK-MEL-5
NCI-H226 = system: NCI-H226
SW-620 = system: SW-620
Malme-3M = system: Malme-3M
SNB-19 = system: SNB-19
HOP-62 = system: HOP-62
MOLT-4 = system: MOLT-4
NCI-H23 = system: NCI-H23
RPMI-8226 = system: RPMI-8226
UO-31 = system: UO-31
HCC 2998 = system: HCC 2998
CAKI-1 = system: CAKI-1
HOP-18 = system: HOP-18
NCI-H460 = system: NCI-H460
U-251 = system: U-251
OVCAR-8 = system: OVCAR-8
SNB-75 = system: SNB-75
A549 = system: A549
XF498 = system: XF498
SK-MEL-2 = system: SK-MEL-2
SK-MEL-28 = system: SK-MEL-28
HT-29 = system: HT-29
HL-60 = system: HL-60
K562 = system: K562
HCT-15 = system: HCT-15
OVCAR-4 = system: OVCAR-4
SF-268 = system: SF-268
M14 = system: M14
DMS-273 = system: DMS-273
SR = system: SR

COc1cccc(/C=C2\C(=O)N(C(=O)Cc3ccccc3)N=C2C)c1
GI50 (EKVX): > 100 µM (inactive)
GI50 (KM12): > 100 µM (inactive)
GI50 (DLD-1): > 100 µM (inactive)
GI50 (M19-MEL): > 100 µM (inactive)
GI50 (SNB-78): > 100 µM (inactive)
GI50 (TK-10): > 100 µM (inactive)
GI50 (SF-295): > 100 µM (inactive)
GI50 (CCRF-CEM): > 100 µM (inactive)
GI50 (COLO 205): > 100 µM (inactive)
GI50 (SF-539): > 100 µM (inactive)
GI50 (OVCAR-3): > 100 µM (inactive)
GI50 (ACHN): > 100 µM (inactive)
GI50 (786-0): > 100 µM (inactive)
GI50 (OVCAR-5): > 100 µM (inactive)
GI50 (SN12C): > 100 µM (inactive)
GI50 (UACC-257): > 100 µM (inactive)
GI50 (NCI-H522): > 100 µM (inactive)
GI50 (HCT-116): > 100 µM (inactive)
GI50 (DMS-114): > 100 µM (inactive)
GI50 (LOX IMVI): > 100 µM (inactive)
GI50 (SK-MEL-5): > 100 µM (inactive)
GI50 (NCI-H226): > 100 µM (inactive)
GI50 (SW-620): > 100 µM (inactive)
GI50 (Malme-3M): > 100 µM (inactive)
GI50 (SNB-19): > 100 µM (inactive)
GI50 (HOP-62): > 100 µM (inactive)
GI50 (MOLT-4): > 100 µM (inactive)
GI50 (NCI-H23): > 100 µM (inactive)
GI50 (RPMI-8226): > 100 µM (inactive)
GI50 (UO-31): > 100 µM (inactive)
GI50 (HCC 2998): > 100 µM (inactive)
GI50 (CAKI-1): > 100 µM (inactive)
GI50 (HOP-18): 12.4 µM (inactive)
GI50 (NCI-H460): > 10 µM (inactive)
GI50 (U-251): > 100 µM (inactive)
GI50 (OVCAR-8): > 100 µM (inactive)
GI50 (SNB-75): > 100 µM (inactive)
GI50 (A549): > 100 µM (inactive)
GI50 (XF498): > 100 µM (inactive)
GI50 (SK-MEL-2): > 100 µM (inactive)
GI50 (SK-MEL-28): > 100 µM (inactive)
GI50 (HT-29): > 100 µM (inactive)
GI50 (HL-60): > 100 µM (inactive)
GI50 (K562): > 100 µM (inactive)
GI50 (HCT-15): > 100 µM
GI50 (OVCAR-4): > 100 µM (inactive)
GI50 (SF-268): > 100 µM (inactive)
GI50 (M14): > 100 µM (inactive)
GI50 (DMS-273): > 100 µM (inactive)
GI50 (SR): > 100 µM (inactive)
